Literature values, collected in US20060069068A1, “Methods and compositions for the treatment of diseases characterized by pathological calcification” (Nanobac Pharmaceuticals, Inc., priority 2004, published 2006).

Key:
[1] = both in vitro and in vivo; comparator etidronate
Nanobacteria = details: background statement

Row | Molecule | potency relative to etidronate [1] | killing of Nanobacteria (Nanobacteria)
1 | NCCCC(O)(P(=O)(O)O)P(=O)(O)O [alendronate] | approximately 700 fold | –
2 | Penicillin | – | cannot be killed
